The source made the active and inactive calls. The calls are words filed in the database; no cut-off is given here.
tested on: L1210; experiment: Antitumor activity was evaluated in vitro on a L1210 tumor cell line; assay type: functional, cell-based; conditions: Mus musculus

SMILES	IC50 [µM]
Cc1c2c(nn1C)C(=O)N1CCC[C@H]1C=N2	8.84
Cc1nn(C)c2c1N=C[C@@H]1CCCN1C2=O	22.4

tested on: L1210; experiment: Antitumor activity was evaluated in vitro on a L1210 tumor cell line; IA means inactive; assay type: functional, cell-based; conditions: Mus musculus

SMILES	Activity
Cc1c2c(nn1C)C(=O)N1CCC[C@H]1CN2	inactive
Cc1nn(C)c2c1NC[C@@H]1CCCN1C2=O	inactive
CSC1=Nc2c(nn(C)c2C)C(=O)N2CCC[C@@H]12	inactive
CSC1=Nc2c(C)nn(C)c2C(=O)N2CCC[C@@H]12	inactive

From ChEMBL document CHEMBL1127146, “Synthesis and antitumor activity of a new class of pyrazolo[4,3-e]pyrrolo[1,2-a][1,4]diazepinone analogs of pyrrolo[1,4]benzodiazepines (PBDs)” (Bioorg Med Chem Lett, 1993)
